Data set [1] deals with T1, Aromatase (Homo sapiens, UniProt P11511).
T1 sequence (P11511 whole entry): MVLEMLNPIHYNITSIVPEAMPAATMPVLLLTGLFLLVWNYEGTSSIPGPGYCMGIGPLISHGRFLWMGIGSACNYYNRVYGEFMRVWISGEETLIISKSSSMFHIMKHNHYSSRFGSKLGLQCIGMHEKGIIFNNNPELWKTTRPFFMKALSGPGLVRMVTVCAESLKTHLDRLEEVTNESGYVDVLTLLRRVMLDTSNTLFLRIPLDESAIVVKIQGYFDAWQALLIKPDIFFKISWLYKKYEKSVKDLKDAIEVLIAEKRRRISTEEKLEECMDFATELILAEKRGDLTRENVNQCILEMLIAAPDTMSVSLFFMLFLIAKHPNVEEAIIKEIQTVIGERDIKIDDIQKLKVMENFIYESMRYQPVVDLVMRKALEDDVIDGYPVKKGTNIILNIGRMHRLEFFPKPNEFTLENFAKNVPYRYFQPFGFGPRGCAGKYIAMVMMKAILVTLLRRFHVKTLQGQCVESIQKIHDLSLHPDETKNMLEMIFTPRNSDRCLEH
To be noted: 0.25 h, read-out: INH.
Description: Inhibition of aromatase in human placental microsomes using [1beta-3H]androstenedione as substrate at 2 uM after 15 mins by liquid scintillation counting

Data set [2] addresses T1, Aromatase. In words: Competitive inhibition of aromatase in human microsomes using [1beta-3H]androstenedione as substrate after 5 mins by Lineweaver-Burk plot analysis. Further details: species or system Microsome; call rule not given here.
Data set [3] concerns the target T1, Aromatase. In words: Inhibition of aromatase in human microsomes using [1beta-3H]androstenedione as substrate after 5 mins by Dixon plot analysis. Further details: species or system Microsome. The following applies: read-out: Ki(app).
Data set [4] deals with T1, Aromatase. Nature of the data set: Inhibition of aromatase in human placental microsomes using [1beta-3H]androstenedione as substrate after 15 mins by liquid scintillation counting. Also noted: species or system Placenta.

Molecules are shown by their SMILES.

For the molecule `C[C@]12CC[C@H](O)C=C1CC[C@@H]1[C@@H]2CC[C@]2(C)C(=O)CC[C@@H]12`, at Aromatase [1], the inhibition at 2 µM came out at 93.1%. The “inhibition (INH)” value at Aromatase [2] is “Active”. For the molecule `C[C@]12CCC=C[C@@H]1CC[C@@H]1[C@@H]2CC[C@]2(C)C(=O)CC[C@@H]12`, at Aromatase [2], the “inhibition (INH)” value is on record as “Active”. The Ki on Aromatase [3] was 0.05 µM. Regarding `C[C@]12CC[C@H]3O[C@H]3[C@@H]1CC[C@@H]1[C@@H]2CC[C@]2(C)C(=O)CC[C@@H]12`, the “inhibition (INH)” value on Aromatase [2] was “Active”. On to `C[C@]12CCCC=C1CC[C@@H]1[C@@H]2CC[C@]2(C)C(=O)CC[C@@H]12`, for which the inhibition at 2 µM at Aromatase [1] turned out to be 97.8%. Consider `C[C@]12CC[C@@H](O)C=C1CC[C@@H]1[C@@H]2CC[C@]2(C)C(=O)CC[C@@H]12`, for which, at Aromatase [1], the inhibition at 2 µM is 60.8%. Still for that read-out and setting: the figure for `CC(=O)O[C@H]1CC[C@H]2[C@@H]3CCC4=C[C@@H](O)CC[C@]4(C)[C@H]3CC[C@]12C` is 4.6%. With `C[C@]12CC[C@H]3[C@@H](CC[C@@]45O[C@@H]4CCC[C@]35C)[C@@H]1CCC2=O`, 0.97 µM corresponded to half-maximal inhibition on Aromatase [4] (IC50). Moreover, the inhibition at 2 µM on Aromatase [1] was found to be 84.6%. Also, the “inhibition (INH)” value on Aromatase [2] is reported as “Active”. In addition, the Ki on Aromatase [3] came to 0.086 µM. Regarding `C[C@]12CC=CC[C@@H]1CC[C@@H]1[C@@H]2CC[C@]2(C)C(=O)CC[C@@H]12`, the IC50 – broadly, the concentration needed to halve the response being measured – on Aromatase [4] turned out to be 1.73 µM. In addition, the inhibition at 2 µM on Aromatase [1] turned out to be 72%. In addition, at Aromatase [2], the “inhibition (INH)” value was “Active”. Also, at Aromatase [3], the Ki turned out to be 9.5 µM. At Aromatase [4], `C[C@]12C[C@H]3O[C@H]3C[C@@H]1CC[C@@H]1[C@@H]2CC[C@]2(C)C(=O)CC[C@@H]12` returned an IC50 of 1.15 µM. The inhibition at 2 µM at Aromatase [1] was determined as 70.7%. For `C[C@]12C=CCC[C@@H]1CC[C@@H]1[C@@H]2CC[C@]2(C)C(=O)CC[C@@H]12`, the inhibition at 2 µM on Aromatase [1] stood at 56%. On the same count and under the same terms, as for `C[C@]12[C@@H](CC[C@@H]3[C@@H]1CC[C@]1(C)C(=O)CC[C@@H]31)CC[C@@H]1O[C@@H]12`, the figure is 40%.

Consider `CC(=O)OC1=CCC[C@@]2(C)[C@H]1CC[C@@H]1[C@@H]2CC[C@]2(C)C(=O)CC[C@@H]12`, for which the inhibition at 2 µM on Aromatase [1] was found to be 33.9%. On the same count and under the same terms, the figure for `CC(=O)Oc1ccccc1C(=O)OC1=C2CC[C@@H]3[C@H](CC[C@]4(C)C(=O)CC[C@@H]34)[C@@]2(C)CCC1=O` is 68.7%; for `C[C@]12CCC=C[C@@H]1CC[C@@H]1[C@@H]2CC[C@]2(C)C(=S)CC[C@@H]12` it is 41.5%.

Values taken from ChEMBL document CHEMBL2057175, “New structure-activity relationships of A- and D-ring modified steroidal aromatase inhibitors: design, synthesis, and biochemical evaluation” (J Med Chem, 2012).
